What all share (type): in vivo
Test [1] concerns Mycosphaerella graminicola; Anamorph: Septoria tritici. Description: Leaf Blotch of Wheat (SEPTTR) disease control. Particulars: Zymoseptoria tritici. The gist of the method: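 Seedlings of variety Yuma grew until the first leaf fully emerged. Fungicide solution (acetone/water with Triton X-100) was sprayed to run-off; plants were inoculated with S. tritici spores before or after spraying, held one day dark and two to three days lit at 100% humidity, then kept at 20° C.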

For test [2], the system named is Puccinia triticina; Synonym: Puccinia recondite f. Sp. Tritici. The experiment in a line: Wheat Brown Rust (PUCCRT) disease control. Particulars: Puccinia triticina, topical. The procedure, abridged:
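Brown rust on first-leaf Yuma wheat: spore inoculation before or after spray application (acetone/Triton X-100 solution, or EC with Trycol in track spray), overnight 100% RH at 22 °C, disease developed at 24 °C. Severity scored 0–100% and converted to percent control against untreated.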

Another test has as its system Phakopsora pachyrhizi. The experiment in a line: Asian Soybean Rust (PHAKPA) disease control. The note with it: Phakopsora pachyrhizi, topical. The protocol:
Technical grades of materials were dissolved in acetone, which were then mixed with nine volumes of water containing 0.011% Tween 20. The fungicide solutions were applied onto soybean seedlings using an automated booth sprayer to run-off. All sprayed plants were allowed to air dry prior to further handling.
Soybean plants (variety Williams 82) were grown in soil-less Metro mix, with one plant per pot. Two weeks old seedlings were used for testing. Plants were inoculated either 3 days prior to or 1 day after fungicide treatments. Plants were incubated for 24 h in a dark dew room at 22° C. and 100% RH then transferred to a growth room at 23° C. for disease to develop. Disease severity was assessed on the sprayed leaves.

Setting [3] is: 24 h, 1 Day Protectant, rate 100 ppm, read-out: SEPTTR 1 DP disease control.
[4] abbreviates: 24 h, 1 Day Protectant, rate 121.5 g/H, read-out: SEPTTR 1 DP disease control.
The mark [5] stands for this setting: 72 h, 3 Day Curative, rate 100 ppm, read-out: SEPTTR 3 DC disease control.
The mark [6] stands for this setting: 72 h, 3 Day Curative, rate 121.5 g/H, read-out: SEPTTR 3 DC disease control.
Setting [7] is: 24 h, 1 Day Protectant, rate 100 ppm, read-out: PUCCRT 1 DP disease control.
The mark [8] stands for this setting: 24 h, 1 Day Protectant, rate 121.5 g/H, read-out: PUCCRT 1 DP disease control.
Where [9] appears, read: 72 h, 3 Day Curative, rate 100 ppm, read-out: PUCCRT 3 DC disease control.
Where [10] appears, read: 72 h, 3 Day Curative, rate 121.5 g/H, read-out: PUCCRT 3 DC disease control.
[11] abbreviates: 24 h, Wheat Leaf Blotch, 1 Day Protectant, rate 100 ppm (high volume application), read-out: Disease control SEPTTR 1 DP.
Setting [12] is: 24 h, Wheat Leaf Blotch, 1 Day Protectant, rate 121.5 g/H (low volume application), read-out: Disease control SEPTTR 1 DP.
Where [13] appears, read: 72 h, Wheat Leaf Blotch, 3 Day Curative, rate 100 ppm (high volume application), read-out: Disease control SEPTTR 3 DC.
Setting [14] is: 72 h, Wheat Leaf Blotch, 3 Day Curative, rate 121.5 g/H (low volume application), read-out: Disease control SEPTTR 3 DC.
The mark [15] stands for this setting: 24 h, Wheat Brown Rust, 1 Day Protectant, rate 100 ppm (high volume application), read-out: Disease control PUCCRT 1 DP.
[16] abbreviates: 24 h, Wheat Brown Rust, 1 Day Protectant, rate 121.5 g/H (low volume application), read-out: Disease control PUCCRT 1 DP.
The mark [17] stands for this setting: 72 h, Wheat Brown Rust, 3 Day Curative, rate 121.5 g/H (low volume application), read-out: Disease control PUCCRT 3 DC.
[18] abbreviates: 72 h, Wheat Brown Rust, 3 Day Curative, rate 100 ppm (high volume application), read-out: Disease control PUCCRT 3 DC.

Read-outs that look alike come from different tables or passages of the source.

With `COc1ccnc(C(=O)N[C@H]2CCC[C@H](CCC(C)C)[C@@H](OCC3CC3)[C@H](C)OC2=O)c1OC(C)=O` [Compound F63], the pest or weed control at 100 ppm in test [1] (setting [3]), in test [1] (setting [5]), in test [2] (setting [7]) and in test [2] (setting [9]) was 80 to 100% throughout. In addition, the pest or weed control at 121.5 g/ha in test [1] (setting [4]), in test [1] (setting [6]), in test [2] (setting [8]) and in test [2] (setting [10]) was 80 to 100% in each case. The pest or weed control at 25 ppm with Phakopsora pachyrhizi (24 h, 1 Day Protectant, read-out: Disease Control PHAKPA 1DP) is 80 to 100%; with Phakopsora pachyrhizi (72 h, 3 Day Curative, read-out: Disease Control PHAKPA 3DC), 80 to 100%.
Regarding `CCOCC(=O)OCOc1c(OC)ccnc1C(=O)N[C@H]1CCC[C@H](CC2CCCC2)[C@@H](OCC2CC2)[C@H](C)OC1=O` [Compound F178], the pest or weed control at 100 ppm in test [1] (setting [3]), in test [1] (setting [5]), in test [2] (setting [7]) and in test [2] (setting [9]) was 80 to 100% throughout. Moreover, the pest or weed control at 121.5 g/ha in test [1] (setting [4]) lay within 80 to 100%; in test [1] (setting [6]), 80 to 100%; in test [2] (setting [8]), 80 to 100%; in test [2] (setting [10]), 0 to 80%.
Turning to `CCOCC(=O)OCOc1c(OC)ccnc1C(=O)N[C@H]1CCC[C@H](Cc2ccc(OC)cc2)[C@@H](OCC(C)C)[C@H](C)OC1=O` [Compound F179], the pest or weed control at 100 ppm in test [1] (setting [3]), in test [1] (setting [5]), in test [2] (setting [7]) and in test [2] (setting [9]) was 80 to 100% throughout. Also, the pest or weed control at 121.5 g/ha was 80 to 100% in test [1] (setting [4]), 80 to 100% in test [1] (setting [6]), 80 to 100% in test [2] (setting [8]) and 0 to 80% in test [2] (setting [10]).
In the case of `CCOCC(=O)OCOc1c(OC)ccnc1C(=O)N[C@H]1CCC[C@H](CCOc2ccccc2)[C@@H](Oc2ccccc2)[C@H](C)OC1=O` [Compound F182], the pest or weed control at 100 ppm in test [1] (setting [3]), in test [1] (setting [5]), in test [2] (setting [7]) and in test [2] (setting [9]) was 80 to 100% throughout. Also, the pest or weed control at 121.5 g/ha in test [1] (setting [4]) lay within 80 to 100%; in test [1] (setting [6]) it was 80 to 100%; in test [2] (setting [8]), 80 to 100%; in test [2] (setting [10]), 0 to 80%.
For `CCOCC(=O)Oc1c(OC)ccnc1C(=O)N[C@H]1CCC[C@H](CCF)[C@@H](OCC(C)C)[C@H](C)OC1=O` [Compound F184], the pest or weed control at 100 ppm in test [1] (setting [3]), in test [1] (setting [5]), in test [2] (setting [7]) and in test [2] (setting [9]) was 80 to 100% throughout.
On to `CCOCC(=O)Oc1c(OC)ccnc1C(=O)N[C@H]1CCC[C@H](CCOc2ccccc2)[C@@H](Oc2ccccc2)[C@H](C)OC1=O` [Compound F185], for which the pest or weed control at 100 ppm in test [1] (setting [3]), in test [1] (setting [5]), in test [2] (setting [7]) and in test [2] (setting [9]) was 80 to 100% throughout.
Consider `CCOCC(=O)Oc1c(OC)ccnc1C(=O)N[C@H]1CCC[C@H](CCOC)[C@@H](Oc2ccccc2)[C@H](C)OC1=O` [Compound F186], for which the pest or weed control at 100 ppm in test [1] (setting [3]), in test [1] (setting [5]), in test [2] (setting [7]) and in test [2] (setting [9]) was 80 to 100% throughout.
With `CCOCC(=O)Oc1c(OC)ccnc1C(=O)N[C@H]1CCC[C@H](CCOC)[C@@H](OCC(C)C)[C@H](C)OC1=O` [Compound F188], the pest or weed control at 100 ppm in test [1] (setting [3]), in test [1] (setting [5]), in test [2] (setting [7]) and in test [2] (setting [9]) was 80 to 100% in each case. For the same compound, the pest or weed control at 121.5 g/ha in test [1] (setting [4]), in test [1] (setting [6]), in test [2] (setting [8]) and in test [2] (setting [10]) was 80 to 100% in each case.
In the case of `CCOCC(=O)OCOc1c(OC)ccnc1C(=O)N[C@H]1CCC[C@H](Cc2ccc(C)cc2)[C@@H](OCCCC(F)(F)F)[C@H](C)OC1=O` [Compound F190, ((4-methoxy-2-(((3S,7R,8R,9S)-9-methyl-7-(4-methylbenzyl)-2-oxo-8-(4,4,4-trifluorobutoxyl)oxonan-3-yl)carbamoyl)pyridin-3-yl)oxy)methyl 2-ethoxyacetate], the pest or weed control at 100 ppm in test [1] (setting [11]), in test [1] (setting [13]) and in test [2] (setting [15]) was 80 to 100% throughout. Moreover, the pest or weed control at 121.5 g/ha in test [1] (setting [12]) was 80 to 100%; in test [1] (setting [14]) it was 80 to 100%; in test [2] (setting [16]) it was 80 to 100%; in test [2] (setting [17]) it was 0 to 80%.
Regarding `CCOCC(=O)OCOc1c(OC)ccnc1C(=O)N[C@H]1CCC[C@H](CCOCC2CC2)[C@@H](OCC2CC2)[C@H](C)OC1=O` [Compound F191], the pest or weed control at 100 ppm in test [1] (setting [11]), in test [2] (setting [15]) and in test [2] (setting [18]) was 80 to 100% each time. For the same compound, the pest or weed control at 121.5 g/ha in test [1] (setting [12]) was 0 to 80%; in test [1] (setting [14]), 0 to 80%; in test [2] (setting [16]), 80 to 100%; in test [2] (setting [17]) it was 80 to 100%.
For `COCCC(=O)Oc1c(OC)ccnc1C(=O)N[C@H]1CCC[C@H](CC2CCCC2)[C@@H](OCC2CC2)[C@H](C)OC1=O` [Compound F194], the pest or weed control at 100 ppm in test [1] (setting [11]), in test [1] (setting [13]), in test [2] (setting [15]) and in test [2] (setting [18]) was 80 to 100% throughout. For the same compound, the pest or weed control at 121.5 g/ha in test [1] (setting [12]) was 80 to 100%; in test [1] (setting [14]), 80 to 100%; in test [2] (setting [16]), 80 to 100%; in test [2] (setting [17]), 0 to 80%.
As to `COCCC(=O)Oc1c(OC)ccnc1C(=O)N[C@H]1CCC[C@H](Cc2ccc(OC)cc2)[C@@H](OCC2CC2)[C@H](C)OC1=O` [Compound F195, 2-(((3S,7R,8R,9S)-8-(cyclopropylmethoxy)-7-(4-methoxybenzyl)-9-methyl-2-oxooxonan-3-yl)carbamoyl)-4-methoxypyridin-3-yl 3-methoxypropanoate], the pest or weed control at 100 ppm in test [1] (setting [11]), in test [1] (setting [13]), in test [2] (setting [15]) and in test [2] (setting [18]) was 80 to 100% throughout. Besides, the pest or weed control at 121.5 g/ha fell in the range of 80 to 100% in test [1] (setting [12]), 80 to 100% in test [1] (setting [14]), 80 to 100% in test [2] (setting [16]) and 0 to 80% in test [2] (setting [17]).
Consider `COc1ccnc(C(=O)N[C@H]2CCC[C@H](CCOCC3CC3)[C@@H](OCC3CC3)[C@H](C)OC2=O)c1OC(=O)C1CC1` [Compound F196], for which the pest or weed control at 100 ppm lay in the range of 80 to 100% in test [1] (setting [11]), 0 to 80% in test [1] (setting [13]), 80 to 100% in test [2] (setting [15]) and 80 to 100% in test [2] (setting [18]). The pest or weed control at 121.5 g/ha in test [1] (setting [12]) lay in the range of 0 to 80%; in test [1] (setting [14]), 0 to 80%; in test [2] (setting [16]), 80 to 100%; in test [2] (setting [17]), 80 to 100%.
For the compound `CCO[C@@H]1[C@@H](Cc2ccccc2)CCC[C@H](NC(=O)c2nccc(OC)c2OC(=O)CCOC)C(=O)O[C@H]1C` [Compound F197], the pest or weed control at 121.5 g/ha in test [1] (setting [12]), in test [1] (setting [14]), in test [2] (setting [16]) and in test [2] (setting [17]) was 80 to 100% each time.

For the origin of these results see patent US9265253B2, “Use of macrocyclic picolinamides as fungicides” (DOW AGROSCIENCES LLC, priority 2013, dated 2016).
